In PubChem BioAssay AID1963850 (Molecular Pharmacology Branch, DTP, NCI, 2024):

Test system: 192522-019-R-J2-PDC complex tumor spheroid viability
Test: Anticancer human tumor 192522-019-R-J2-PDC patient-derived colon adenocarcinoma cell line growth inhibition [POLQ]
Details: for IC50: curve of first compound; for viability, T/C: stronger effect = lower value
In short: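 PDC + HUVEC + MSC complex spheroids; POLQ inhibitors ± partner drugs; top conc. at/near clinical Cmax, else 10 microM (SN-38 1 microM), half-log dilutions; 37 degrees C, 5% CO2.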

[1] = second compound 0.0316 µM, first compound 0.0316 µM
[2] = second compound 0.0316 µM, first compound 0.1 µM
[3] = second compound 0.0316 µM, first compound 0.316 µM
[4] = second compound 0.0316 µM, first compound 1 µM
[5] = second compound 0.0316 µM, first compound 3.16 µM
[6] = second compound 0.0316 µM, first compound 10 µM
[7] = second compound 0.1 µM, first compound 0.0316 µM
[8] = second compound 0.1 µM, first compound 0.1 µM
[9] = second compound 0.1 µM, first compound 0.316 µM
[10] = second compound 0.1 µM, first compound 1 µM
[11] = second compound 0.1 µM, first compound 3.16 µM
[12] = second compound 0.1 µM, first compound 10 µM
[13] = second compound 0.316 µM, first compound 0.0316 µM
[14] = second compound 0.316 µM, first compound 0.1 µM
[15] = second compound 0.316 µM, first compound 0.316 µM
[16] = second compound 0.316 µM, first compound 1 µM
[17] = second compound 0.316 µM, first compound 3.16 µM
[18] = second compound 0.316 µM, first compound 10 µM
[19] = second compound 1 µM, first compound 0.0316 µM
[20] = second compound 1 µM, first compound 0.1 µM
[21] = second compound 1 µM, first compound 0.316 µM
[22] = second compound 1 µM, first compound 1 µM
[23] = second compound 1 µM, first compound 3.16 µM
[24] = second compound 1 µM, first compound 10 µM
[25] = second compound 3.16 µM, first compound 0.0316 µM
[26] = second compound 3.16 µM, first compound 0.1 µM
[27] = second compound 3.16 µM, first compound 0.316 µM
[28] = second compound 3.16 µM, first compound 1 µM
[29] = second compound 3.16 µM, first compound 3.16 µM
[30] = second compound 3.16 µM, first compound 10 µM
[31] = second compound 10 µM, first compound 0.0316 µM
[32] = second compound 10 µM, first compound 0.1 µM
[33] = second compound 10 µM, first compound 0.316 µM
[34] = second compound 10 µM, first compound 1 µM
[35] = second compound 10 µM, first compound 3.16 µM
[36] = second compound 10 µM, first compound 10 µM
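Also: spheroids exposed to drugs for seven days before reading.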
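For viability, T/C in this document: 100% = DMSO vehicle control viability in luminescence.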

For `CCCS(=O)(=O)Nc1ccc(F)c(C(=O)c2c[nH]c3ncc(-c4ccc(Cl)cc4)cc23)c1F` + Nc1ccc(C#CCN(C(=O)Cc2ncc(C(F)(F)F)cc2C(F)(F)F)c2ccc(F)cc2)nn1, the IC50 (second compound 0.0316 µM) was greater than 10 µM, the IC50 (second compound 0.1 µM) was greater than 10 µM and the IC50 (second compound 0.316 µM) was greater than 10 µM. The IC50 (second compound 1 µM) was greater than 10 µM, the IC50 (second compound 3.16 µM) was greater than 10 µM and the IC50 (second compound 10 µM) was greater than 10 µM. It also gave a viability, T/C [1] of 109%, a viability, T/C [2] of 95.2% and a viability, T/C [3] of 109%. It also gave a viability, T/C [4] of 98.3%, a viability, T/C [5] of 121% and a viability, T/C [6] of 66.9%. The viability, T/C [7] was 106%, the viability, T/C [8] was 107% and the viability, T/C [9] was 104%. It also gave a viability, T/C [10] of 99.9%, a viability, T/C [11] of 101% and a viability, T/C [12] of 67.9%. For the same compound, the viability, T/C [13] was 102%, the viability, T/C [14] was 98.7% and the viability, T/C [15] was 99.4%. For the same compound, the viability, T/C [16] was 102%, the viability, T/C [17] was 101% and the viability, T/C [18] was 83.6%. For the same compound, the viability, T/C [19] was 98%, the viability, T/C [20] was 107% and the viability, T/C [21] was 97.9%. The viability, T/C [22] was 110%, the viability, T/C [23] was 125% and the viability, T/C [24] was 94.1%. For the same compound, the viability, T/C [25] was 101%, the viability, T/C [26] was 102% and the viability, T/C [27] was 98.4%. The viability, T/C [28] was 99.9%, the viability, T/C [29] was 113% and the viability, T/C [30] was 86.6%. The viability, T/C [31] was 105%, the viability, T/C [32] was 106% and the viability, T/C [33] was 99.6%. For the same compound, the viability, T/C [34] was 110%, the viability, T/C [35] was 118% and the viability, T/C [36] was 78.1%.
`COc1cccc2c1C(=O)c1c(O)c3c(c(O)c1C2=O)CC(O)(C(=O)CO)CC3OC1CC(N)C(O)C(C)O1` (stereo not drawn) + COC1C(OC(N)=O)C(O)C(Oc2ccc3c(O)c(NC(=O)c4ccc(O)c(CC=C(C)C)c4)c(=O)oc3c2C)OC1(C)C showed an IC50 (second compound 0.0316 µM) greater than 10 µM, an IC50 (second compound 0.1 µM) greater than 10 µM and an IC50 (second compound 0.316 µM) greater than 10 µM. For the same compound, the IC50 (second compound 1 µM) was greater than 10 µM, the IC50 (second compound 3.16 µM) was greater than 10 µM and the IC50 (second compound 10 µM) was greater than 10 µM. For the same compound, the viability, T/C [1] was 94.3%, the viability, T/C [2] was 79.1% and the viability, T/C [3] was 64.9%. The viability, T/C [4] was 78.1%, the viability, T/C [5] was 65.2% and the viability, T/C [6] was 55.3%. The viability, T/C [7] was 104%, the viability, T/C [8] was 84.4% and the viability, T/C [9] was 65.6%. It also gave a viability, T/C [10] of 78.4%, a viability, T/C [11] of 61.2% and a viability, T/C [12] of 55.2%. For the same compound, the viability, T/C [13] was 98.2%, the viability, T/C [14] was 86.4% and the viability, T/C [15] was 61.3%. For the same compound, the viability, T/C [16] was 79.3%, the viability, T/C [17] was 61.9% and the viability, T/C [18] was 55.6%. The viability, T/C [19] was 104%, the viability, T/C [20] was 92.8% and the viability, T/C [21] was 68.7%. It also gave a viability, T/C [22] of 76.3%, a viability, T/C [23] of 71% and a viability, T/C [24] of 53.1%. For the same compound, the viability, T/C [25] was 101%, the viability, T/C [26] was 85.5% and the viability, T/C [27] was 69.5%. It also gave a viability, T/C [28] of 73%, a viability, T/C [29] of 67% and a viability, T/C [30] of 54.7%. The viability, T/C [31] was 102%, the viability, T/C [32] was 87.4% and the viability, T/C [33] was 66.5%. For the same compound, the viability, T/C [34] was 78%, the viability, T/C [35] was 70.8% and the viability, T/C [36] was 58.6%.
Work on `C=CC(=O)N1CCN(c2nc(=O)n(-c3c(C)ccnc3C(C)C)c3nc(-c4c(O)cccc4F)c(F)cc23)C(C)C1` (stereo not drawn) + Nc1ccc(C#CCN(C(=O)Cc2ncc(C(F)(F)F)cc2C(F)(F)F)c2ccc(F)cc2)nn1 yielded an IC50 (second compound 0.0316 µM) greater than 10 µM, an IC50 (second compound 0.1 µM) greater than 10 µM and an IC50 (second compound 0.316 µM) greater than 10 µM. The IC50 (second compound 1 µM) was greater than 10 µM, the IC50 (second compound 3.16 µM) was greater than 10 µM and the IC50 (second compound 10 µM) was greater than 10 µM. The viability, T/C [1] was 104%, the viability, T/C [2] was 99.7% and the viability, T/C [3] was 96.7%. For the same compound, the viability, T/C [4] was 111%, the viability, T/C [5] was 116% and the viability, T/C [6] was 97%. The viability, T/C [7] was 105%, the viability, T/C [8] was 97.2% and the viability, T/C [9] was 110%. For the same compound, the viability, T/C [10] was 112%, the viability, T/C [11] was 102% and the viability, T/C [12] was 98.3%. The viability, T/C [13] was 108%, the viability, T/C [14] was 104% and the viability, T/C [15] was 103%. The viability, T/C [16] was 105%, the viability, T/C [17] was 116% and the viability, T/C [18] was 100%. It also gave a viability, T/C [19] of 109%, a viability, T/C [20] of 102% and a viability, T/C [21] of 103%. The viability, T/C [22] was 108%, the viability, T/C [23] was 119% and the viability, T/C [24] was 99.3%. The viability, T/C [25] was 102%, the viability, T/C [26] was 98.8% and the viability, T/C [27] was 103%. For the same compound, the viability, T/C [28] was 108%, the viability, T/C [29] was 115% and the viability, T/C [30] was 106%. It also gave a viability, T/C [31] of 104%, a viability, T/C [32] of 111% and a viability, T/C [33] of 102%. For the same compound, the viability, T/C [34] was 108%, the viability, T/C [35] was 107% and the viability, T/C [36] was 104%.
`COc1cccc(OCCCN)c1-c1cc(Nc2cnc(C#N)cn2)n[nH]1` + Cc1cccc(N(C)C(=O)C2C(O)CCN2c2nc(C)cc(C(F)(F)F)c2C#N)c1 gave an IC50 (second compound 0.0316 µM) of 0.0283 µM, an IC50 (second compound 0.1 µM) of 0.0301 µM and an IC50 (second compound 0.316 µM) of 0.0484 µM. It also gave an IC50 (second compound 1 µM) of 0.0716 µM, an IC50 (second compound 3.16 µM) of 0.0591 µM and an IC50 (second compound 10 µM) of 0.0546 µM. It also gave a viability, T/C (second compound 0.0316 µM, first compound 0.00316 µM) of 91.4%, a viability, T/C (second compound 0.0316 µM, first compound 0.01 µM) of 92.1% and a viability, T/C [1] of 45.4%. The viability, T/C [2] was 41%, the viability, T/C [3] was 39.8% and the viability, T/C [4] was 38%. The viability, T/C (second compound 0.1 µM, first compound 0.00316 µM) was 107%, the viability, T/C (second compound 0.1 µM, first compound 0.01 µM) was 83.4% and the viability, T/C [7] was 49.5%. The viability, T/C [8] was 35.5%, the viability, T/C [9] was 41.1% and the viability, T/C [10] was 39%. It also gave a viability, T/C (second compound 0.316 µM, first compound 0.00316 µM) of 100%, a viability, T/C (second compound 0.316 µM, first compound 0.01 µM) of 86.2% and a viability, T/C [13] of 54%. It also gave a viability, T/C [14] of 44%, a viability, T/C [15] of 38.1% and a viability, T/C [16] of 43.4%. It also gave a viability, T/C (second compound 1 µM, first compound 0.00316 µM) of 115%, a viability, T/C (second compound 1 µM, first compound 0.01 µM) of 97.4% and a viability, T/C [19] of 62%. It also gave a viability, T/C [20] of 44.9%, a viability, T/C [21] of 45.3% and a viability, T/C [22] of 36.8%. The viability, T/C (second compound 3.16 µM, first compound 0.00316 µM) was 108%, the viability, T/C (second compound 3.16 µM, first compound 0.01 µM) was 99.2% and the viability, T/C [25] was 58.8%. The viability, T/C [26] was 41.5%, the viability, T/C [27] was 44.1% and the viability, T/C [28] was 39.9%. For the same compound, the viability, T/C (second compound 10 µM, first compound 0.00316 µM) was 105%, the viability, T/C (second compound 10 µM, first compound 0.01 µM) was 89.4% and the viability, T/C [31] was 53%. It also gave a viability, T/C [32] of 47.2%, a viability, T/C [33] of 48% and a viability, T/C [34] of 43.6%.
